Test results: ChEMBL document CHEMBL1201862, “PubChem BioAssay data set” (2004)
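Cells were grown in 96-well plates and exposed to each compound for 48 hours at five concentrations; endpoints were interpolated linearly between bracketing concentrations, or set to the highest concentration if not reached. GI50 marks 50% less growth.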 Active and inactive are the calls of the source. Cut-off read from the data, not from the text of the source: active = GI50 up to about 1.1 µM and inactive = higher.

Columns and labels:
Test in all cases: DTP human tumour cell line panel, 48 h
[1] = system: HT-29
[2] = system: BT-549
[3] = system: K562
[4] = system: M19-MEL
[5] = system: SK-MEL-28
[6] = system: UO-31
[7] = system: MOLT-4
[8] = system: UACC-62
[9] = system: NCI-H460
[10] = system: HOP-62
[11] = system: OVCAR-8
[12] = system: U-251
[13] = system: Malme-3M
[14] = system: SK-MEL-5
[15] = system: NCI/ADR-RES
[16] = system: M14
[17] = system: MDA-MB-231
[18] = system: HOP-92
[19] = system: MCF7
[20] = system: DLD-1
[21] = system: KM-20L2
[22] = system: SNB-78
[23] = system: CCRF-CEM
[24] = system: LXFL 529
[25] = system: KM12
[26] = system: ACHN
[27] = system: HL-60
[28] = system: SNB-19
[29] = system: HCT-116
[30] = system: SF-539
[31] = system: DMS-114
[32] = system: A498
[33] = system: COLO 205
[34] = system: HCC 2998
[35] = system: OVCAR-4
[36] = system: IGROV-1
[37] = system: RXF 393
[38] = system: SN12C
[39] = system: DU-145
[40] = system: UACC-257
[41] = system: SF-295
[42] = system: A549
[43] = system: 786-0
[44] = system: SK-OV-3
[45] = system: MDA-MB-435
[46] = system: CAKI-1
[47] = system: Hs-578T
[48] = system: DMS-273
[49] = system: XF498
[50] = system: EKVX
[51] = system: OVCAR-5
[52] = system: RPMI-8226
[53] = system: SW-620
[54] = system: PC-3
[55] = system: LOX IMVI
[56] = system: NCI-H522
[57] = system: OVCAR-3
[58] = system: TK-10
[59] = system: HOP-18
[60] = system: SF-268
[61] = system: MDA-N
[62] = system: SK-MEL-2
[63] = system: HCT-15
[64] = system: NCI-H23
[65] = system: NCI-H226
[66] = system: SNB-75
[67] = system: RXF 631

For `CC[C@@]1(OC(=O)CN(C)C)C(=O)OCc2c1cc1n(c2=O)Cc2cc3ccccc3nc2-1`, the GI50 [1] was 129 nM (active), the GI50 [2] was 53.6 nM (active) and the GI50 [3] was 61 nM (active). For the same molecule, the GI50 [4] was 114 nM (active), the GI50 [5] was 308 nM (active) and the GI50 [6] was 29.6 nM (active). The GI50 [7] was 2.95 nM (active), the GI50 [8] was 5.69 nM (active) and the GI50 [9] was 5.33 nM (active). The GI50 [10] was 23.4 nM (active), the GI50 [11] was 59.6 nM (active) and the GI50 [12] was 11.8 nM (active). For the same molecule, the GI50 [13] was 347 nM (active), the GI50 [14] was 32.8 nM (active) and the GI50 [15] was 42.1 nM (active). The GI50 [16] was 52.5 nM (active), the GI50 [17] was 3270 nM (inactive) and the GI50 [18] was 119 nM (active). For the same molecule, the GI50 [19] was 8.53 nM (active), the GI50 [20] was 323 nM (active) and the GI50 [21] was 249 nM (active). The GI50 [22] was 7670 nM (inactive), the GI50 [23] was 2.56 nM (active) and the GI50 [24] was 1290 nM (inactive). For the same molecule, the GI50 [25] was 223 nM (active), the GI50 [26] was 8.75 nM (active) and the GI50 [27] was 10.5 nM (active). The GI50 [28] was 20.8 nM (active), the GI50 [29] was 48.1 nM (active) and the GI50 [30] was 11.1 nM (active). The GI50 [31] was 25.9 nM (active), the GI50 [32] was 205 nM (active) and the GI50 [33] was 394 nM (active). For the same molecule, the GI50 [34] was 145 nM (active), the GI50 [35] was 482 nM (active) and the GI50 [36] was 242 nM (active). For the same molecule, the GI50 [37] was 139 nM (active), the GI50 [38] was < 19.1 nM (active) and the GI50 [39] was 13 nM (active). The GI50 [40] was 110 nM (active), the GI50 [41] was 10 nM (active) and the GI50 [42] was 36.5 nM (active). For the same molecule, the GI50 [43] was 25.9 nM (active), the GI50 [44] was 71 nM (active) and the GI50 [45] was 194 nM (active). The GI50 [46] was 21.1 nM (active), the GI50 [47] was 4240 nM (inactive) and the GI50 [48] was 10 nM (active). The GI50 [49] was 354 nM (active), the GI50 [50] was 863 nM (active) and the GI50 [51] was 247 nM (active). For the same molecule, the GI50 [52] was 181 nM (active), the GI50 [53] was 98 nM (active) and the GI50 [54] was 97.3 nM (active). For the same molecule, the GI50 [55] was 19.8 nM (active), the GI50 [56] was 255 nM (active) and the GI50 [57] was 320 nM (active). For the same molecule, the GI50 [58] was 1930 nM (inactive), the GI50 [59] was 312 nM (active) and the GI50 [60] was < 13.1 nM (active). For the same molecule, the GI50 [61] was 173 nM (active), the GI50 [62] was 701 nM (active) and the GI50 [63] was 228 nM. The GI50 [64] was 86.5 nM (active), the GI50 [65] was 35.6 nM (active) and the GI50 [66] was 64.7 nM (active).
For `CC1=C(C(=O)Nc2cc(=O)n(C)c(=O)n2C)C(c2ccco2)C(C(=O)Nc2cc(=O)n(C)c(=O)n2C)=C(C)N1`, the GI50 [1] was > 100000 nM (inactive), the GI50 [3] was > 100000 nM (inactive) and the GI50 [4] was > 100000 nM (inactive). The GI50 [5] was > 100000 nM (inactive), the GI50 [6] was > 100000 nM (inactive) and the GI50 [7] was > 100000 nM (inactive). For the same molecule, the GI50 [9] was > 100000 nM (inactive), the GI50 [10] was 41500 nM (inactive) and the GI50 [11] was > 100000 nM (inactive). For the same molecule, the GI50 [12] was > 100000 nM (inactive), the GI50 [13] was > 100000 nM (inactive) and the GI50 [14] was > 100000 nM (inactive). For the same molecule, the GI50 [16] was > 100000 nM (inactive), the GI50 [18] was 48500 nM (inactive) and the GI50 [20] was > 100000 nM (inactive). The GI50 [21] was > 100000 nM (inactive), the GI50 [22] was > 100000 nM (inactive) and the GI50 [23] was > 100000 nM (inactive). For the same molecule, the GI50 [24] was > 100000 nM (inactive), the GI50 [25] was > 100000 nM (inactive) and the GI50 [26] was > 100000 nM (inactive). The GI50 [27] was > 100000 nM (inactive), the GI50 [28] was > 100000 nM (inactive) and the GI50 [30] was > 100000 nM (inactive). For the same molecule, the GI50 [31] was > 100000 nM (inactive), the GI50 [32] was > 100000 nM (inactive) and the GI50 [33] was > 100000 nM (inactive). The GI50 [34] was > 100000 nM (inactive), the GI50 [35] was > 100000 nM (inactive) and the GI50 [36] was > 100000 nM (inactive). The GI50 [37] was > 100000 nM (inactive), the GI50 [38] was > 100000 nM (inactive) and the GI50 [40] was > 100000 nM (inactive). The GI50 [41] was > 100000 nM (inactive), the GI50 [42] was > 100000 nM (inactive) and the GI50 [43] was > 100000 nM (inactive). For the same molecule, the GI50 [46] was > 100000 nM (inactive), the GI50 [49] was > 100000 nM (inactive) and the GI50 [50] was > 100000 nM (inactive). For the same molecule, the GI50 [51] was > 100000 nM (inactive), the GI50 [52] was > 100000 nM (inactive) and the GI50 [53] was > 100000 nM (inactive). The GI50 [55] was > 100000 nM (inactive), the GI50 [56] was > 100000 nM (inactive) and the GI50 [57] was > 100000 nM (inactive). For the same molecule, the GI50 [67] was > 100000 nM (inactive), the GI50 [58] was > 100000 nM (inactive) and the GI50 [60] was > 100000 nM (inactive). The GI50 [62] was > 100000 nM (inactive), the GI50 [64] was > 100000 nM (inactive) and the GI50 [65] was > 100000 nM (inactive). For the same molecule, the GI50 [66] was 44800 nM (inactive).
